# Laboratory results from patent publication US7772263B2, “Compounds for the treatment of inflammatory disorders” (Schering Corporation, priority 2006, dated 2010).
# Biological target: T1, purified catalytic domain of recombinant human TACE (rhTACEc) (Homo sapiens, UniProt P78536, N452Q/S266A)
# T1 construct: rhTACEc, Residue 215 to 477 with two mutation (S266A and N4520) and a 6×His tail; 6xHis (C); made in house; host or cells: baculovirus/Hi5 insect cells
# Assay: TACE kinetic assay, cleavage of internally quenched fluorescent peptide substrate SPDL-3
# Format: biochemical
# Conditions: TACE inhibition, Table 1001; read-out: Ki Rating
# T1 sequence (P78536 215-477 S266A/N452Q limits assumed): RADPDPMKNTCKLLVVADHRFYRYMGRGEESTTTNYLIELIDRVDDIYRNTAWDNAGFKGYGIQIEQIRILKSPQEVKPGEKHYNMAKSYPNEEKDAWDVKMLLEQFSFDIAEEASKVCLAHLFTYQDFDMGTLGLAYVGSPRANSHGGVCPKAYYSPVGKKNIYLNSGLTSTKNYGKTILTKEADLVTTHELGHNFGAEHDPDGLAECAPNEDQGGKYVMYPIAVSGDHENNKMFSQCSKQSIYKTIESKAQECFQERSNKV
row,SMILES,Ki
1,COc1ccc2c(c1)C(=O)N(C[C@@]1(C#Cc3ccc(C(=O)NC4CC4)o3)NC(=O)NC1=O)C2 [Compound 901],< 5 nM
2,COc1ccc2c(c1)C(=O)N(C[C@@]1(C#Cc3c[nH]c(C)n3)NC(=O)NC1=O)C2 [Compound 902],< 5 nM
3,COc1ccc2c(c1)C(=O)N(C[C@@]1(C#Cc3ccc4ncsc4c3)NC(=O)NC1=O)C2 [Compound 903],< 5 nM
4,COc1ccc2c(c1)C(=O)N(C[C@@]1(C#Cc3ccccc3C(C)C)NC(=O)NC1=O)C2 [Compound 904],< 5 nM
5,O=C1NC(=O)[C@@](C#Cc2ccc(F)cc2F)(CN2Cc3ccc(OC(F)F)cc3C2=O)N1 [Compound 905],< 5 nM
6,COc1ccc2c(c1)C(=O)N(C[C@@]1(C#Cc3ccc(F)c(C#N)c3)NC(=O)NC1=O)C2 [Compound 906],< 5 nM
7,COc1ccc2c(c1)C(=O)N(C[C@@]1(C#Cc3ccc(OC)c(F)c3)NC(=O)NC1=O)C2 [Compound 907],< 5 nM
8,COc1ccc2c(c1)C(=O)N(C[C@@]1(C#Cc3cc(F)cc(F)c3OC)NC(=O)NC1=O)C2 [Compound 908],< 5 nM
9,COc1ccc2c(c1)C(=O)N(C[C@@]1(C#Cc3ccc(-c4ccccn4)s3)NC(=O)NC1=O)C2 [Compound 909],< 5 nM
10,COc1ccc2c(c1)C(=O)N(C[C@@]1(C#Cc3nc4ccccc4s3)NC(=O)NC1=O)C2 [Compound 910],< 5 nM
11,COc1ccc2c(c1)C(=O)N(C[C@@]1(C#Cc3c(C)n[nH]c3C)NC(=O)NC1=O)C2 [Compound 911],< 5 nM
12,COc1ccc2c(c1)C(=O)N(C[C@@]1(C#Cc3c(N)ccc4scnc34)NC(=O)NC1=O)C2 [Compound 912],< 5 nM
13,COc1ccc2c(c1)C(=O)N(C[C@@]1(C#Cc3ncnc4c3ncn4C(C)C)NC(=O)NC1=O)C2 [Compound 913],< 5 nM
14,COc1ccc2c(c1)C(=O)N(C[C@@]1(C#Cc3ncnc4[nH]cnc34)NC(=O)NC1=O)C2 [Compound 914],< 5 nM
15,COC(=O)c1ccc(C#C[C@]2(CN3Cc4ccc(OC)cc4C3=O)NC(=O)NC2=O)o1 [Compound 915],< 5 nM
16,COc1ccc2c(c1)C(=O)N(C[C@@]1(C#Cc3ccc(C(N)=O)o3)NC(=O)NC1=O)C2 [Compound 916],< 5 nM
17,COc1ccc2c(c1)C(=O)N(C[C@@]1(C#Cc3ccc(C(=O)O)o3)NC(=O)NC1=O)C2 [Compound 917],< 5 nM
18,COc1ccc2c(c1)C(=O)N(C[C@@]1(C#Cc3cnc(C)n3C)NC(=O)NC1=O)C2 [Compound 918],< 5 nM
19,CCc1cc(C#C[C@]2(CN3Cc4ccc(OC)cc4C3=O)NC(=O)NC2=O)cc2sc(N)nc12 [Compound 919],< 5 nM
20,COc1ccc2c(c1)C(=O)N(C[C@@]1(C#Cc3cnccc3N)NC(=O)NC1=O)C2 [Compound 920],< 5 nM
21,O=C1NC(=O)[C@@](C#Cc2cc(F)cc(F)c2)(CN2Cc3ccc(OC(F)F)cc3C2=O)N1 [Compound 922],< 5 nM
22,COC(=O)c1ncccc1C#C[C@]1(CN2Cc3ccc(OC)cc3C2=O)NC(=O)NC1=O [Compound 924],< 5 nM
23,COc1ccc2c(c1)C(=O)N(C[C@@]1(C#Cc3cccnc3C(=O)O)NC(=O)NC1=O)C2 [Compound 925],< 5 nM
24,COc1ccc2c(c1)C(=O)N(C[C@@]1(C#Cc3ccncc3N)NC(=O)NC1=O)C2 [Compound 926],5 to 25 nM

row,SMILES,Ki
1,COc1ccc2c(c1)C(=O)N(C[C@@]1(C#Cc3ncccc3N)NC(=O)NC1=O)C2 [Compound 928],< 5 nM
2,COc1ccc2c(c1)C(=O)N(C[C@@]1(C#Cc3cccnc3N)NC(=O)NC1=O)C2 [Compound 930],< 5 nM
3,COc1ccc2c(c1)C(=O)N(C[C@@]1(C#Cc3cccc(C(C)C)c3)NC(=O)NC1=O)C2 [Compound 931],< 5 nM
4,COc1ccc2c(c1)C(=O)N(C[C@@]1(C#Cc3cnc4ncccc4c3)NC(=O)NC1=O)C2 [Compound 932],< 5 nM
5,COc1ccc2c(c1)C(=O)N(C[C@@]1(C#Cc3ccc4ncccc4c3)NC(=O)NC1=O)C2 [Compound 933],< 5 nM
6,COc1ccc2c(c1)C(=O)N(C[C@@]1(C#Cc3cc(C(F)(F)F)cc(C(F)(F)F)c3)NC(=O)NC1=O)C2 [Compound 934],< 5 nM
7,COc1ccc2c(c1)C(=O)N(C[C@@]1(C#Cc3ccc(OC(F)F)cc3)NC(=O)NC1=O)C2 [Compound 937],< 5 nM
8,COc1ccc2c(c1)C(=O)N(C[C@@]1(C#Cc3cc(F)c(Cl)c(F)c3)NC(=O)NC1=O)C2 [Compound 938],< 5 nM
9,COc1ccc2c(c1)C(=O)N(C[C@@]1(C#Cc3ccc(C#N)c(F)c3)NC(=O)NC1=O)C2 [Compound 939],< 5 nM
10,COc1ccc2c(c1)C(=O)N(C[C@@]1(C#Cc3ccc4ccn(C)c4n3)NC(=O)NC1=O)C2 [Compound 940],< 5 nM
11,COc1ccc2c(c1)C(=O)N(C[C@@]1(C#Cc3cnc4c(ccn4C)c3)NC(=O)NC1=O)C2 [Compound 941],< 5 nM
12,COc1ccc2c(c1)C(=O)N(C[C@@]1(C#Cc3cnc4nc(O)ccc4c3)NC(=O)NC1=O)C2 [Compound 942],< 5 nM
13,O=C1NC(=O)[C@@](C#Cc2cccnc2)(CN2Cc3ccc(OC(F)F)cc3C2=O)N1 [Compound 943],< 5 nM
14,COc1ccc2c(c1)C(=O)N(C[C@@]1(C#Cc3cnc4nc(N)c(C#N)cc4c3)NC(=O)NC1=O)C2 [Compound 944],< 5 nM
15,COc1ccc2c(c1)C(=O)N(C[C@@]1(C#Cc3cccc(S(N)(=O)=O)c3)NC(=O)NC1=O)C2 [Compound 945],< 5 nM
16,COc1ccc2c(c1)C(=O)N(C[C@@]1(C#Cc3ccc(S(N)(=O)=O)cc3)NC(=O)NC1=O)C2 [Compound 946],< 5 nM
17,COc1ccc2c(c1)C(=O)N(C[C@@]1(C#Cc3ccccc3S(N)(=O)=O)NC(=O)NC1=O)C2 [Compound 947],< 5 nM
18,COc1ccc2c(c1)C(=O)N(C[C@@]1(C#Cc3cn(C)c(C)n3)NC(=O)NC1=O)C2 [Compound 948],< 5 nM
19,COc1ccc2c(c1)C(=O)N(C[C@@]1(C#Cc3cnc4[nH]ccc4c3)NC(=O)NC1=O)C2 [Compound 949],< 5 nM
20,COc1ccc2c(c1)C(=O)N(C[C@@]1(C#Cc3cc(OC)cc4sc(N)nc34)NC(=O)NC1=O)C2 [Compound 950],< 5 nM
21,COc1ccc2c(c1)C(=O)N(C[C@@]1(C#Cc3ccc4nccc(OC)c4c3)NC(=O)NC1=O)C2 [Compound 951],< 5 nM
22,COc1ccc2c(c1)C(=O)N(C[C@@]1(C#Cc3nccc4cc[nH]c34)NC(=O)NC1=O)C2 [Compound 952],< 5 nM
23,COc1ccc2c(c1)C(=O)N(C[C@@]1(C#Cc3cncc4cc[nH]c34)NC(=O)NC1=O)C2 [Compound 953],< 5 nM
24,CNC(=O)c1ccc(C#C[C@]2(CN3Cc4ccc(OC)cc4C3=O)NC(=O)NC2=O)o1 [Compound 954],< 5 nM

row,SMILES,Ki
1,COc1ccc2c(c1)C(=O)N(C[C@@]1(C#Cc3cncc4cccnc34)NC(=O)NC1=O)C2 [Compound 955],< 5 nM
2,COC(=O)c1ccc2cncc(C#C[C@]3(CN4Cc5ccc(OC)cc5C4=O)NC(=O)NC3=O)c2n1 [Compound 956],< 5 nM
3,COc1ccc2c(c1)C(=O)N(C[C@@]1(C#Cc3cncc4ccc(C(N)=O)nc34)NC(=O)NC1=O)C2 [Compound 957],< 5 nM
4,CNC(=O)c1ccc2cncc(C#C[C@]3(CN4Cc5ccc(OC)cc5C4=O)NC(=O)NC3=O)c2n1 [Compound 958],< 5 nM
5,COc1ccc2c(c1)C(=O)N(C[C@@]1(C#Cc3cncc4ccc(C(=O)O)nc34)NC(=O)NC1=O)C2 [Compound 959],< 5 nM
6,COc1ccc2c(c1)C(=O)N(C[C@@]1(C#Cc3cnc4[nH]cnc4c3)NC(=O)NC1=O)C2 [Compound 960],< 5 nM
7,COc1ccc2c(c1)C(=O)N(C[C@@]1(C#Cc3cnc4[nH]c(C)nc4c3)NC(=O)NC1=O)C2 [Compound 961],< 5 nM
8,COc1ccc2c(c1)C(=O)N(C[C@@]1(C#Cc3cc4nc[nH]c4nc3C)NC(=O)NC1=O)C2 [Compound 962],< 5 nM
9,COc1ccc2c(c1)C(=O)N(CC1(C#Cc3ccc4ncsc4c3)NC(=O)NC1=O)C2 (centres unmarked) [Compound 963],< 5 nM
10,COc1ccc2c(c1)C(=O)N(C[C@]1(C#Cc3ccccc3C(C)C)NC(=O)NC1=O)C2 [Compound 964],5 to 25 nM
11,COc1ccc2c(c1)C(=O)N(C[C@]1(C#Cc3nc4ccccc4s3)NC(=O)NC1=O)C2 [Compound 965],25 to 100 nM
12,COc1ccc2c(c1)C(=O)N(C[C@]1(C#Cc3cnc4ncccc4c3)NC(=O)NC1=O)C2 [Compound 966],25 to 100 nM
13,COc1ccc2c(c1)C(=O)N(C[C@]1(C#Cc3cccc(C(C)C)c3)NC(=O)NC1=O)C2 [Compound 967],25 to 100 nM
14,COc1ccc2c(c1)C(=O)N(C[C@]1(C#Cc3ccc4ncccc4c3)NC(=O)NC1=O)C2 [Compound 968],25 to 100 nM
15,O=C1NC(=O)C(C#Cc2cc(F)cc(F)c2)(CN2Cc3ccc(OC(F)F)cc3C2=O)N1 (centres unmarked) [Compound 969],< 5 nM
16,O=C1NC(=O)[C@](C#Cc2cc(F)cc(F)c2)(CN2Cc3ccc(OC(F)F)cc3C2=O)N1 [Compound 970],> 100 nM
17,O=C1NC(=O)C(C#Cc2ccc(F)cc2F)(CN2Cc3ccc(OC(F)F)cc3C2=O)N1 (centres unmarked) [Compound 971],< 5 nM
18,COc1ccc2c(c1)C(=O)N(C[C@@]1(C#Cc3ccc(S(=O)(=O)O)cc3)NC(=O)NC1=O)C2 [Compound 973],< 5 nM
19,COc1ccc2c(c1)C(=O)N(C[C@@]1(C#Cc3ccccc3)NC(=O)NC1=O)C2 [Compound 1002],< 5 nM
20,O=C1NC(=O)[C@@](C#Cc2cc(F)cc(F)c2)(CN2Cc3ccc(Cl)cc3C2=O)N1 [Compound 1003B],< 5 nM
21,O=C1NC(=O)[C@@](C#Cc2cccc(F)c2)(CN2Cc3ccc(Cl)cc3C2=O)N1 [Compound 1003C],< 5 nM
22,COc1ccc2c(c1)C(=O)N(C[C@@]1(C#Cc3cccnc3C)NC(=O)NC1=O)C2 [Compound 1003],< 5 nM
23,O=C1NC(=O)[C@@](C#Cc2cccnc2)(CN2Cc3ccc(Cl)cc3C2=O)N1 [Compound 1004],< 5 nM

# Same assay, conditions: rhTACEc 70 pM, 30 μM SPDL-3, 90 min pre-incubation at 25° C.; read-out: Ki (nM), TACE inhibitory activity
row,SMILES,Ki
1,COc1ccc2c(c1)C(=O)N(C[C@@]1(C#Cc3cccnc3N)NC(=O)NC1=O)C2 [Compound 930],0.56 nM
2,COc1ccc2c(c1)C(=O)N(C[C@@]1(C#Cc3ccc4scnc4c3)NC(=O)NC1=O)C2 [Compound 972],0.12 nM
3,COc1ccc2c(c1)C(=O)N(C[C@@]1(C#Cc3cccnc3C)NC(=O)NC1=O)C2 [Compound 1003],0.11 nM
